The target of assay [1] is T1, 5-HT6 (Homo sapiens, UniProt P50406).
T1 construct: gene HTR6; human recombinant receptor, crude membranes of HEK293 or CHO cells
As to the kind of experiment: biochemical. Set-up: species or system HEK293 or CHO; competitive radioligand binding on crude membranes, filtration and scintillation counting. Conditions: for Ki: read-out: Ki (nM), 6. On the procedure:
(§1) Eleven dilutions (5 × assay concentration) of the test and reference compounds (Table S1) were prepared in standard binding buffer (50 mM tris(hydroxymethyl)-aminomethane-HCl (Tris-HCl), 10 mM MgCl2, 1 mM ethylenediaminetetraacetate (EDTA), pH 7.4) by serial dilution: 0.05 nM, 0.5 nM, 1.5 nM, 5 nM, 15 nM, 50 nM, 150 nM, 500 nM, 1.5 μM, 5 μM, and 50 μM. The radioligand (Table S3) was diluted to five times the assay concentration in standard binding buffer. Aliquots ([…]) of the radioligand were dispensed into the wells of a 96-well plate containing […] of standard binding buffer. Triplicate aliquots ([…]) of the test and reference compound dilutions were then added. Finally, crude membrane fractions ([…]) of cells (HEK293 or CHO) expressing human recombinant receptors were dispensed into each well. A total of […] of the reaction mixtures was incubated at room temperature and shielded from light for 1.5 h, and was then harvested by rapid filtration onto Whatman GF/B glass fiber filters presoaked with 0.3% polyethyleneimine, by using a 96-well Brandel harvester (Gaithersburg, MD, USA). Four rapid washes were performed with chilled standard binding buffer (500 mL) to decrease nonspecific binding. Filters were placed in 6 mL scintillation tubes and allowed to dry overnight. The next day, 4-mL of EcoScint scintillation cocktail (National Diagnostics) was added to each tube. The tubes were capped, labeled, and counted by [compound left out] scintillation counting. The filter mats were dried, and the scintillant was melted onto the filters, then the radioactivity retained on the filters was counted in a Microbeta scintillation counter. The IC50 values were obtained by using the Prism 4.0 program (GraphPad Software, La Jolla, CA, USA) and were converted into Ki values. Each compound was tested at least in triplicate. With each enantiomer (R)- or (S)-5d and 5e in hand, the optically active pyrimidine derivatives 4d–4e were synthesized following the same reaction sequences (Scheme 3). Finally, compounds 4d and 4e were assessed for their binding affinity to 5-HT2 receptor subtypes by radioligand binding assays. […] A further evaluation of these compounds for other 5-HT receptor subtypes was also performed and is provided in the supplementary data (Table S2). […] Considering the potencies and selectivities of 4, we can conclude that (R,R)-4e would be a viable candidate for a selective 5-HT2C modulator.

Assay [2] has as its target T2, 5-HT2C (Homo sapiens, UniProt P28335).
T2 construct: gene HTR2C; human recombinant receptor; crude membrane fractions of transfected cells (CHO-K1; HEK293 or CHO)
T2 sequence (P28335 33-458): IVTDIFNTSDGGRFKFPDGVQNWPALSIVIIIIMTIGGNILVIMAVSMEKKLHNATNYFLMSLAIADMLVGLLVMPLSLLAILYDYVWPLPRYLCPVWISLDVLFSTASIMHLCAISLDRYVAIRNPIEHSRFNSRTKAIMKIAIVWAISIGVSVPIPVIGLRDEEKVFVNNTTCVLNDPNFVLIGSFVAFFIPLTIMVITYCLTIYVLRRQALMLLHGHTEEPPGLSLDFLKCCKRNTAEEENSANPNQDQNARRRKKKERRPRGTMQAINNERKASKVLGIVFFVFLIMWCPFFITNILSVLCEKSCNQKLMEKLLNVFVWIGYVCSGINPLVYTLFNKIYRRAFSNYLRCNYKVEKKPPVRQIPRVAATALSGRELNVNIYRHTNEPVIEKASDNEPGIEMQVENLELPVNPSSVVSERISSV
As to the kind of experiment: biochemical. More on the design: species or system HEK293 or CHO; competitive radioligand binding on crude membranes, filtration and scintillation counting. As for the experimental part:
as §1

For assay [3], the target named is T3, 5-HT2A (Homo sapiens, UniProt P28223).
T3 construct: gene HTR2A; human recombinant receptor; crude membrane fractions of transfected HEK293 or CHO cells
The assay is described as follows: biochemical. More on the design: species or system HEK293 or CHO; competitive radioligand binding on crude membranes, filtration and scintillation counting. On the procedure:
as §1, with “liquid” for “[compound left out]”

For assay [4], the target named is T3, 5-HT2A. As to the kind of experiment: radioligand displacement, membranes. In kind it is binding. The text has this:
radioligand displacement, membranes on 5-HT2A

The structures appear in SMILES notation.

T3 sequence (P28223 whole entry): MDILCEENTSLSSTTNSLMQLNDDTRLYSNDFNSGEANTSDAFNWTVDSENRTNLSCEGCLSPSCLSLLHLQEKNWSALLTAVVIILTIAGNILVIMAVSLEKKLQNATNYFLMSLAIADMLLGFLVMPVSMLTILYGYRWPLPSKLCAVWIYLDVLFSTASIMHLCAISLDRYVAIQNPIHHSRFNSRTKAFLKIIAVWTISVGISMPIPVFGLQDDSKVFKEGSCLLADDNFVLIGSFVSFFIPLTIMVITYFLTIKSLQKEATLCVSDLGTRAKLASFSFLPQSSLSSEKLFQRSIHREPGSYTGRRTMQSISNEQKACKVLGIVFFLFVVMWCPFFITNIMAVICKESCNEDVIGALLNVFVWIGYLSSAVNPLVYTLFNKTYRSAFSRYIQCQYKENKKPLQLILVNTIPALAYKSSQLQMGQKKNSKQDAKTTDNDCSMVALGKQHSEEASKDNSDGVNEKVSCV
T1 sequence (P50406 whole entry): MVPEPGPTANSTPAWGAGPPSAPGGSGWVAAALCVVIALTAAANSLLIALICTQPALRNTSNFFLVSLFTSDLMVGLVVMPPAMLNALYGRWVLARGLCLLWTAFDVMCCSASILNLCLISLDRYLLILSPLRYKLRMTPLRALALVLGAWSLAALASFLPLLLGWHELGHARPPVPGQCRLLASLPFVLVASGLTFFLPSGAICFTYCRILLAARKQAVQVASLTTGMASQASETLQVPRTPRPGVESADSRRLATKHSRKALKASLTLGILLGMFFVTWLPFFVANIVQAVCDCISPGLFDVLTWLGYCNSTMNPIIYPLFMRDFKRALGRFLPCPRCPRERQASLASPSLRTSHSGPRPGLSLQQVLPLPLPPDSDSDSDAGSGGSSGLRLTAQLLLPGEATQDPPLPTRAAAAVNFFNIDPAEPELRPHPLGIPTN

In general, inhibition refers to the share of the control response that was lost under treatment. A low value points to little suppression. The term Ki denotes a measure of affinity in units of concentration, obtained from inhibition or displacement. With `C[C@H](Oc1nc(N2CCNC[C@H]2C)ncc1F)c1cccc(F)c1` [(S,R)-4d, 5-Fluoro-4-((S)-1-(3-fluorophenyl)ethoxy)-2-((R)-2-methylpiperazin-1-yl)pyrimidine], the inhibition at 10 µM in assay [1] turned out to be 91.6%; in assay [2], 97.7%; in assay [3], 82.4%. For the same compound, the Ki in assay [1] turned out to be 70 nM; in assay [4] it was 0.475 µM.
Consider `C[C@@H]1CNCCN1c1ncc(F)c(O[C@H](C)c2ccc(F)cc2)n1` [(R,R)-4e, 5-Fluoro-4-((R)-1-(4-fluorophenyl)ethoxy)-2-((R)-2-methylpiperazin-1-yl)pyrimidine], for which, in assay [1], 10 µM produced 97.4% inhibition and the Ki amounted to 17 nM. In assay [2], the inhibition at 10 µM was found to be 94.2%. For the same compound, the “5-HT2A / %Binding” value in assay [4] (pH 7.4, 10 mM MgCl2, room temperature, single concentration, 10 μM) is on record as 0.9%.
As for `C[C@H](Cc1cccc(F)c1)Oc1nc(N2CCNC[C@H]2C)ncc1F` [compound 3, pyrimidine analogue 3], the figures for the inhibition at 10 µM in assay [1], in assay [2] and in assay [3] were 93.8%, 98.2% and 95.6%, respectively. For the same compound, the Ki amounted to 43 nM in assay [1] and 0.128 µM in assay [4].
Consider `C[C@H](Oc1nc(N2CCNC[C@H]2C)ncc1F)c1ccc(F)cc1` [(S,R)-4e, 5-Fluoro-4-((S)-1-(4-fluorophenyl)ethoxy)-2-((R)-2-methylpiperazin-1-yl)pyrimidine], for which the values for the inhibition at 10 µM in assay [1], in assay [2] and in assay [3] were 86.1%, 97.8% and 64.8%, respectively. Moreover, the inhibition constant (Ki) in assay [1] stood at 116 nM; in assay [4], 1.02 µM.
For `C[C@@H]1CNCCN1c1ncc(F)c(O[C@H](C)c2cccc(F)c2)n1` [(R,R)-4d, 5-Fluoro-4-((R)-1-(3-fluorophenyl)ethoxy)-2-((R)-2-methylpiperazin-1-yl)pyrimidine], in that order: 95.7%, 98.5%, 93.3%, 57 nM and 0.222 µM.

These data come from publication PMC6151589, “Identification of Optically Active Pyrimidine Derivatives as Selective 5-HT2C Modulators” (Molecules : A Journal of Synthetic Chemistry and Natural …, 2017).
